Tests used:
[1] = tested on: Total P53, MDM2, P21, AKR1C3 proteins in H460 P53 KO cells; assay: WB detection, presence and absence of Nutlin-3; type: cell-based, human; details: H460 P53 KO cells (#1, #7, #8, #12), 5 µM Nutlin-3, 24h, compared to H460 wild-type DMSO group (Figures 29, 30)
Procedure: • 1) H460 and H460 P53 KO cell suspensions were added to a 24-well plate, with a cell density of 100000 /well and 995 µL of medium per well. • 2) The cells were cultured overnight in an incubator at 37°C, 5% CO2. • 3) Compound Treatment
After 24 hours of cell plating, according to the protocol, each cell line experiment was grouped as: H460 WT untreated group, H460 P53 KO # 1 untreated group, H460 P53 KO # 7 untreated group, H460 P53 KO # 8 untreated group, H460 P53 KO # 12 untreated group, H460 WT 0.1% DMSO treated group, H460 WT 5 µM Nutlin-3 treated group, H460 P53 KO # 1 5 µM Nutlin-3 treated group, H460 P53 KO # 7 5 µM Nutlin-3 treated group, H460 P53 KO # 8 5 µM Nutlin-3 treated group, H460 P53 KO # 12 5 µM Nutlin-3 treated group. […]
• 1) The cell plates were taken back, the medium supernatant was discarded, and the plates were gently rinsed with PBS. […] The cells were scraped off with a cell scraper, lysed on ice for 30 min, and centrifuged at 14000 rpm and 4°C for 10 min. • 2) Protein quantification was performed using the BCA method. […] Solutions A and B of the ECL luminescence solution (SuperSignal West Femto Maximum Sensitivity) were mixed and added to the membrane dried away from water. […]

[2] = tested on: Ser15-p53, Ser20-p53, Total p53, MDM2 and p21 proteins in H460 cells; assay: WB detection of p53 protein pathway; type: cell-based; details: 0.1-1 nM AST-3424, 5 µM Nutlin-3, 24 hours, three experiments (Figures 11-13)
Procedure: Overview of the experimental process: • 1) H460 cell suspension was added to a 24-well plate, with a cell density of 80000 /well and 995 µL of medium per well. • 2) The cells were cultured overnight in an incubator at 37°C, 5% CO2. • 3) Compound Treatment
After 24 hours of cell plating, according to the protocol, each cell line experiment was grouped as: Monotherapy: After 24 hours of cell plating, each well was supplied with 5µL of test compounds at different concentrations: 0.5% DMSO, 0.1nM AST-3424 and 5 µM Nutlin-3, shaken gently to ensure even mixing, and then placed at 37°C, 5% CO2 in an incubator.
Combination therapy: After 24 hours of cell plating, each well was supplied with 5µL of test compounds at different concentrations. The cells were pre-treated with 5µM Nutlin-3 for 2 hours and then were added with 0.1nM AST-3424, shaken gently to ensure even mixing, and then placed at 37°C, 5% CO2 in an incubator.
4) Cell protein lysates were collected for WB analysis.
Combination therapy group: • Adding 0.1 nM AST-3424 for pre-treatment for 2 hours, and then adding 5 µM Nutlin-3 for co-treatment for 22 hours; • Adding 0.3 nM AST-3424 for pre-treatment for 2 hours, and then adding 5 µM Nutlin-3 for co-treatment for 22 hours; • Adding 1 nM AST-3424 for pre-treatment for 2 hours, and then adding 5 µM Nutlin-3 for co-treatment for 22 hours.

[3] = tested on: γH2AX protein in H460 cells; assay: WB detection of DNA damage marker; type: cell-based; details: 0.1-1 nM AST-3424, 5 µM Nutlin-3, 24 hours (Figures 20-22)
Description: In the first, the second and the third experiment of the effect of AST-3424 in combination with Nutlin-3 on Ser15-p53, Ser20-p53, Total p53, MDM2 and p21 proteins in H460 cells in example 5, the applicant also performed WB detection of γH2AX protein, with the results shown in Figures 20, 21 and 22.

A549 cells = assay: Cell cycle G2/M arrest, PI staining flow cytometry; type: cell-based; details: second experiment, 0.3-9 nM AST-3424, 5 µM Nutlin-3, AST-3424 pre-treatment 2 hours (Figure 6)
Procedure: A second experiment was further conducted, in order to further study the effects of different concentrations of AST-3424 alone, Nutlin-3 alone and the two in combination and different administration sequences in the combination therapy on the cell cycle of H460/A549 cells (p53 wild-type, protein normal expression).
The remaining operations were similar to the above experiment, and the compound treatment conditions were as follows:
For A549 cell line, 1% DMSO, adding 5 µM Nutlin-3 for treatment for 22 hours, adding 0.3 nM AST-3424 for treatment for 24 hours, adding 1 nM AST-3424 for treatment for 24 hours, adding 9 nM AST-3424 for treatment for 24 hours, and adding 9 nM AST-3424 for treatment for 24 hours.
For A549 cell line, • Adding 0.3 nM AST-3424 for pre-treatment for 2 hours, and then adding 5 µM Nutlin-3 for co-treatment for 22 hours; • Adding 1 nM AST-3424 for pre-treatment for 2 hours, and then adding 5 µM Nutlin-3 for co-treatment for 22 hours; • Adding 3 nM AST-3424 for pre-treatment for 2 hours, and then adding 5 µM Nutlin-3 for co-treatment for 22 hours; • Adding 9 nM AST-3424 for pre-treatment for 2 hours, and then adding 5 µM Nutlin-3 for co-treatment for 22 hours.

[4] = tested on: p53, Rad51, MDM2 and p21 proteins in HPAF-II cells; assay: WB detection of p53 pathway proteins in p53 mutant cells; type: cell-based; details: 60 nM AST, 8 µM Nutlin-3, 24 hours (Figure 23)
Procedure: • 1)HPAF-II cell suspension was added to a 24-well plate, with a cell density of 300000 /well and 995 µL of medium per well. • 2) The cells were cultured overnight in an incubator at 37°C, 5% CO2. • 3) Compound treatment. After 24 hours of cell plating, the cells were grouped and dosed according to different cells.
HPAF-II were grouped as: 1% DMSO treated group, 60nM AST treated group, 8 µM Nutlin-3 treated group, AST 60nM + Nutlin-3 8 µM treated group.
Monotherapy: After 24 hours of cell plating, each well was supplied with 5µL of test compounds at different concentrations: 1% DMSO, AST 1.5nM, Nutlin-3 1µM, AST 60nM and Nutlin-3 8µM, shaken gently to ensure even mixing, and then placed at 37°C, 5% CO2 in an incubator.
Combination therapy: After 24 hours of cell plating, each well was supplied with 5µL of 1µM Nutlin-3 and Nutlin-3 8µM respectively for pre-treatment four 2 hours. Then the corresponding cells were added with […] of 1.5nM AST and 60nM AST, shaken gently to ensure even mixing, and then placed at 37°C, 5% CO2 in an incubator.
4) After incubating the 24-well plates in a 37°C, 5% CO2 incubator for 24 hours, the cell protein lysate was collected for WB detection, and the WB detection results were shown in Figure 23. […]

In the case of `COc1ccc(C2=NC(c3ccc(Cl)cc3)C(c3ccc(Cl)cc3)N2C(=O)N2CCNC(=O)C2)c(OC(C)C)c1` (racemic) [Nutlin-3], the “expressions of MDM2, P53, P21 and AKR1C3 proteins (WB)” value [1] is reported as “not upregulated” and the “phosphorylation of p53 (Ser15-p53 and Ser20-p53), protein expression of total-p53, MDM2 and p21 (WB)” value [2] is reported as “upregulated the expression levels of p53 and its downstream proteins p21 and MDM2”.
With `C[C@H](OP(=O)(N1CC1)N1CC1)c1ccc([N+](=O)[O-])c(Oc2cccc(C(=O)N(C)C)c2)c1` [AST-3424] the “γH2AX protein amount, a biomarker of DNA double-strand damage (WB)” value [3] was “upregulate the amount of γH2AX protein” and the “G2/M cell cycle arrest” value (A549 cells) was “concentration-dependent G2/M cell cycle arrest”.
`O=[N+]([O-])c1ccc(C(OP(=O)(N2CC2)N2CC2)C(F)(F)F)cc1Oc1ccc(-c2ccc(F)cc2)c(F)c1` (stereo not drawn) [AST] was tested, and the “expression of RAD51 protein (WB)” value [4] was “promoted the expression of RAD51 protein” and the “expression of p53, its downstream proteins p21 and MDM2 (WB)” value [4] was “no effect”.

— EP4755396A1, “TREATMENT OF P53 GENE MUTATION OR DEFECT NEGATIVE CANCER AND TUMOR PATIENTS” (Ascentawits Pharmaceuticals, Ltd., priority 2023, dated 2025)
